28 compounds from article PMC3319116 (Journal of Medicinal Chemistry, 2012) can be followed below.

SMILES strings stand for the structures.

Data set [1] has as its target T1, CB1 (Homo sapiens, UniProt P21554). The experiment in a line: CB1 Gαq16-coupled intracellular calcium mobilization assay in CHO-K1 cells. It is filed as cell-based.
A short description of data set [2]: In vivo evaluation of brain penetration. Details: species or system rats. The conditions noted are these: 10 mg/kg; for bioavailable with oral or intra-peritoneal dosing: oral or ip.
In data set [3] the target is T1, CB1. Put plainly: Radioligand displacement of [3H]CP55940 at CB1. The settings on record: Ki vs CP55940. It is filed as binding.

T1 sequence (P21554 whole entry): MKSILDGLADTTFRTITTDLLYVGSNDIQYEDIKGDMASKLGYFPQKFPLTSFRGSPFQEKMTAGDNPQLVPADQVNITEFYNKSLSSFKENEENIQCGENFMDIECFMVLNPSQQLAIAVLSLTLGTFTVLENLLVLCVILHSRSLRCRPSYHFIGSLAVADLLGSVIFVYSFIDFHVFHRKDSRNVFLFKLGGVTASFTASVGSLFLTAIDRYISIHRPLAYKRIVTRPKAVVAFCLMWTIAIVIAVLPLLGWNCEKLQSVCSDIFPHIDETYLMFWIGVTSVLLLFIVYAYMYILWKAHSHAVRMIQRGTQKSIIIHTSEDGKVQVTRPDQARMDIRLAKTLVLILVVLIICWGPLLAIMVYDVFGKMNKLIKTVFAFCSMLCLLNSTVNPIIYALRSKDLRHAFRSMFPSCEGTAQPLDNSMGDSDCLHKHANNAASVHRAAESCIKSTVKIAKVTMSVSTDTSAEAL

Turning to `Cc1c(C(=O)N2CCC(C(=O)O)(c3ccccc3)CC2)nn(-c2ccc(Cl)cc2Cl)c1-c1ccc(Cl)cc1` [Compound 10, 1-{[5-(4-Chlorophenyl)-1-(2,4-dichlorophenyl)-4-methyl-1H-pyrazol-3-yl]carbonyl}-4-phenylpiperidine-4-carboxylic acid], on CB1 [1], the Kb worked out at 1170 nM.
For the compound `Cc1c(C(=O)N2CCC(NC(=O)NC(C)(C)C)(c3ccccc3)CC2)nn(-c2ccc(Cl)cc2Cl)c1-c1ccc(Cl)cc1` [Compound 17a, 3-tert-Butyl-1-(1-{[5-(4-chlorophenyl)-1-(2,4-dichlorophenyl)-4-methyl-1H-pyrazol-3-yl]carbonyl}-4-phenylpiperidin-4-yl)urea], the “Brain Conc.” value in data set [2] (Oral, 60 min, unperfused brain) is given as “below the lower limit of quantitation”. The “bioavailable with oral or intra-peritoneal dosing” value in data set [2] is “bioavailable”.
Take `Cc1c(C(=O)N2CCC(NC(=O)NCc3ccccc3)(c3ccccc3)CC2)nn(-c2ccc(Cl)cc2Cl)c1-c1ccc(Cl)cc1` [Compound 17b, 1-Benzyl-3-(1-{[5-(4-chlorophenyl)-1-(2,4-dichlorophenyl)-4-methyl-1H-pyrazol-3-yl]carbonyl}-4-phenylpiperidin-4-yl)urea]: the “Ke (nM) CB1” value on CB1 [1] (apparent dissociation affinity constant, rightward shift of CP55940 curve) came out at 2.09 nM.
`Cc1c(C(=O)N2CCC(NC(=O)Nc3ccc(N(C)C)cc3)(c3ccccc3)CC2)nn(-c2ccc(Cl)cc2Cl)c1-c1ccc(Cl)cc1` [Compound 17e, 3-(1-{[5-(4-Chlorophenyl)-1-(2,4-dichlorophenyl)-4-methyl-1H-pyrazol-3-yl]carbonyl}-4-phenylpiperidin-4-yl)-1-[4-(dimethylamino)phenyl]urea]: on CB1 [1], the Kb was found to be 264 nM.
In the case of `Cc1c(C(=O)NC2CCN(C(=O)OC(C)(C)C)CC2)nn(-c2ccc(Cl)cc2Cl)c1-c1ccc(Cl)cc1` [Compound 18a, tert-Butyl-4-[5-(4-chlorophenyl)-1-(2,4-dichlorophenyl)-4-methyl-1H-pyrazole-3-amido]piperidine-1-carboxylate], in data set [2], the “bioavailable with oral or intra-peritoneal dosing” value is “bioavailable”.
For the compound `Cc1c(C(=O)NC2CCNCC2)nn(-c2ccc(Cl)cc2Cl)c1-c1ccc(Cl)cc1` [Compound 18b, 5-(4-Chlorophenyl)-1-(2,4-dichlorophenyl)-4-methyl-N-(piperidin-4-yl)-1H-pyrazole-3-carboxamide], the Kb on CB1 [1] worked out at 5110 nM.
With `CC(=O)N1CCC(NC(=O)c2nn(-c3ccc(Cl)cc3Cl)c(-c3ccc(Cl)cc3)c2C)CC1` [Compound 18c, N-(1-Acetylpiperidin-4-yl)-5-(4-chlorophenyl)-1-(2,4-dichlorophenyl)-4-methyl-1H-pyrazole-3-carboxamide], the Kb on CB1 [1] is 195 nM.
Consider `Cc1c(C(=O)NC2CCN(S(C)(=O)=O)CC2)nn(-c2ccc(Cl)cc2Cl)c1-c1ccc(Cl)cc1` [Compound 18d, 5-(4-Chlorophenyl)-1-(2,4-dichlorophenyl)-N-(1-methanesulfonylpiperidin-4-yl)-4-methyl-1H-pyrazole-3-carboxamide], for which the Kb at CB1 [1] is 269 nM.
With `Cc1c(C(=O)NC2CCN(S(N)(=O)=O)CC2)nn(-c2ccc(Cl)cc2Cl)c1-c1ccc(Cl)cc1` [Compound 18e, 5-(4-Chlorophenyl)-1-(2,4-dichlorophenyl)-4-methyl-N-(1-sulfamoylpiperidin-4-yl)-1H-pyrazole-3-carboxamide], on CB1 [1], the Kb stood at 592 nM.
As to `Cc1c(C(=O)NC2CCN(C(=O)NC(C)(C)C)CC2)nn(-c2ccc(Cl)cc2Cl)c1-c1ccc(Cl)cc1` [Compound 18f, 1-N-tert-Butyl-4-C-5-(4-chlorophenyl)-1-(2,4-dichlorophenyl)-4-methyl-1H-pyrazole-3-piperidine-1,4-diamido], in data set [2], the “bioavailable with oral or intra-peritoneal dosing” value is “bioavailable”.
`CCOC(=O)N1CCC(NC(=O)c2nn(-c3ccc(Cl)cc3Cl)c(-c3ccc(Cl)cc3)c2C)CC1` [Compound 18l, Ethyl-4-[5-(4-chlorophenyl)-1-(2,4-dichlorophenyl)-4-methyl-1H-pyrazole-3-amido]piperidine-1-carboxylate]: on CB1 [1], the Kb came to 3 nM.
On to `Cc1c(C(=O)N[C@H]2CCCN(C(=O)OC(C)(C)C)C2)nn(-c2ccc(Cl)cc2Cl)c1-c1ccc(Cl)cc1` [Compound 19a, tert-Butyl-(3S)-3-[5-(4-chlorophenyl)-1-(2,4-dichlorophenyl)-4-methyl-1H-pyrazole-3-amido]piperidine-1-carboxylate], for which the Kb at CB1 [1] was found to be 842 nM.
For `Cc1c(C(=O)N[C@H]2CCCNC2)nn(-c2ccc(Cl)cc2Cl)c1-c1ccc(Cl)cc1` [Compound 19b, 5-(4-Chlorophenyl)-1-(2,4-dichlorophenyl)-4-methyl-N-[(3S)-piperidin-3-yl]-1H-pyrazole-3-carboxamide], at CB1 [1], the Kb worked out at 1880 nM.
On to `Cc1c(C(=O)N[C@H]2CCCN(S(C)(=O)=O)C2)nn(-c2ccc(Cl)cc2Cl)c1-c1ccc(Cl)cc1` [Compound 19d, 5-(4-Chlorophenyl)-1-(2,4-dichlorophenyl)-N-[(3S)-1-methanesulfonylpiperidin-3-yl]-4-methyl-1H-pyrazole-3-carboxamide], for which the Kb at CB1 [1] came to 62 nM. Besides, the “selectivity for CB1 versus CB2” value on CB1 [3] is listed as “over 100 fold”.
On to `CCNC(=O)N1CCC[C@H](NC(=O)c2nn(-c3ccc(Cl)cc3Cl)c(-c3ccc(Cl)cc3)c2C)C1` [Compound 19e, (3S)-3-C-5-(4-Chlorophenyl)-1-(2,4-dichlorophenyl)-4-methyl-1H-pyrazole-3-1-N-ethylpiperidine-1,3-diamido], for which the Kb on CB1 [1] was 280 nM.
Same read-out and setting: as for `Cc1c(C(=O)N[C@H]2CCCN(C(=O)NC(C)C)C2)nn(-c2ccc(Cl)cc2Cl)c1-c1ccc(Cl)cc1` [Compound 19f, (3S)-3-C-5-(4-Chlorophenyl)-1-(2,4-dichlorophenyl)-4-methyl-1H-pyrazole-3-1-N-(propan-2-yl)piperidine-1,3-diamido], the figure is 265 nM; as for `CCCCNC(=O)N1CCC[C@H](NC(=O)c2nn(-c3ccc(Cl)cc3Cl)c(-c3ccc(Cl)cc3)c2C)C1` [Compound 19h, (3S)-1-N-Butyl-3-C-5-(4-chlorophenyl)-1-(2,4-dichlorophenyl)-4-methyl-1H-pyrazole-3-piperidine-1,3-diamido], 230 nM; as for `Cc1c(C(=O)N[C@H]2CCCN(C(=O)NC(C)(C)C)C2)nn(-c2ccc(Cl)cc2Cl)c1-c1ccc(Cl)cc1` [Compound 19i, (3S)-1-N-tert-Butyl-3-C-5-(4-chlorophenyl)-1-(2,4-dichlorophenyl)-4-methyl-1H-pyrazole-3-piperidine-1,3-diamido], 206 nM.
`Cc1c(C(=O)N[C@@H]2CCCNC2)nn(-c2ccc(Cl)cc2Cl)c1-c1ccc(Cl)cc1` [Compound 20b, 5-(4-Chlorophenyl)-1-(2,4-dichlorophenyl)-4-methyl-N-[(3R)-piperidin-3-yl]-1H-pyrazole-3-carboxamide]: on CB1 [1], the Kb is 1170 nM.
On the same count and under the same terms, as for `CC(=O)N1CCC[C@@H](NC(=O)c2nn(-c3ccc(Cl)cc3Cl)c(-c3ccc(Cl)cc3)c2C)C1` [Compound 20c, N-[(3R)-1-Acetylpiperidin-3-yl]-5-(4-chlorophenyl)-1-(2,4-dichlorophenyl)-4-methyl-1H-pyrazole-3-carboxamide], the figure is 530 nM.
Regarding `CCNC(=O)N1CCC[C@@H](NC(=O)c2nn(-c3ccc(Cl)cc3Cl)c(-c3ccc(Cl)cc3)c2C)C1` [Compound 20e, (3R)-3-C-5-(4-Chlorophenyl)-1-(2,4-dichlorophenyl)-4-methyl-1H-pyrazole-3-1-N-ethylpiperidine-1,3-diamido], the Kb on CB1 [1] was determined as 171 nM.
Turning to `CCCCNC(=O)N1CCC[C@@H](NC(=O)c2nn(-c3ccc(Cl)cc3Cl)c(-c3ccc(Cl)cc3)c2C)C1` [Compound 20h, (3R)-1-N-Butyl-3-C-5-(4-chlorophenyl)-1-(2,4-dichlorophenyl)-4-methyl-1H-pyrazole-3-piperidine-1,3-diamido], the Kb at CB1 [1] stood at 118 nM.
In the case of `Cc1c(C(=O)N[C@@H]2CCCN(C(=O)NC(C)(C)C)C2)nn(-c2ccc(Cl)cc2Cl)c1-c1ccc(Cl)cc1` [Compound 20i, (3R)-1-N-tert-Butyl-3-C-5-(4-chlorophenyl)-1-(2,4-dichlorophenyl)-4-methyl-1H-pyrazole-3-piperidine-1,3-diamido], the Kb at CB1 [1] was determined as 268 nM.
With `CCNC(=O)NCC1CCC(CNC(=O)c2nn(-c3ccc(Cl)cc3Cl)c(-c3ccc(Cl)cc3)c2C)CC1` (stereo not drawn) [Compound 21a, 5-(4-Chlorophenyl)-1-(2,4-dichlorophenyl)-N-[(4-{[(ethylcarbamoyl)amino]methyl}cyclohexyl)methyl]-4-methyl-1H-pyrazole-3-carboxamide], the Kb on CB1 [1] was determined as 135 nM.
With `Cc1c(C(=O)NCC2CCC(CNC(=O)NC(C)C)CC2)nn(-c2ccc(Cl)cc2Cl)c1-c1ccc(Cl)cc1` (stereo not drawn) [Compound 21b, 5-(4-Chlorophenyl)-1-(2,4-dichlorophenyl)-4-methyl-N-{[4-({[(propan-2-yl)carbamoyl]amino}methyl)cyclohexyl]methyl}-1H-pyrazole-3-carboxamide], the Kb on CB1 [1] worked out at 351 nM.
For the compound `CCCNC(=O)NCC1CCC(CNC(=O)c2nn(-c3ccc(Cl)cc3Cl)c(-c3ccc(Cl)cc3)c2C)CC1` (stereo not drawn) [Compound 21c, 5-(4-Chlorophenyl)-1-(2,4-dichlorophenyl)-4-methyl-N-[(4-{[(propylcarbamoyl)amino]methyl}cyclohexyl)methyl]-1H-pyrazole-3-carboxamide], at CB1 [1], the Kb was 486 nM.
With `CCCCNC(=O)NCC1CCC(CNC(=O)c2nn(-c3ccc(Cl)cc3Cl)c(-c3ccc(Cl)cc3)c2C)CC1` (stereo not drawn) [Compound 21d, N-[(4-{[(Butylcarbamoyl)amino]methyl}cyclohexyl)methyl]-5-(4-chlorophenyl)-1-(2,4-dichlorophenyl)-4-methyl-1H-pyrazole-3-carboxamide], the Kb on CB1 [1] came to 274 nM.
Take `Cc1c(C(=O)NCC2CCC(CNC(=O)NC(C)(C)C)CC2)nn(-c2ccc(Cl)cc2Cl)c1-c1ccc(Cl)cc1` (stereo not drawn) [Compound 21e, N-[(4-{[(tert-Butylcarbamoyl)amino]methyl}cyclohexyl)methyl]-5-(4-chlorophenyl)-1-(2,4-dichlorophenyl)-4-methyl-1H-pyrazole-3-carboxamide]: the Kb on CB1 [1] was found to be 150 nM.
